In US20210220408A1, “ARYL HYDROCARBON RECEPTOR ANTAGONISTS AND METHODS OF USE” (Magenta Therapeutics Inc., priority 2018, published 2021):

How the values were obtained:
[1] = system: mobilized peripheral blood CD34+ cells; assay: CD34+ expansion assay; assay type: cell-based; conditions: Homo sapiens; read-out: CD34 Frequency EC50
Procedure: Approximately 3,000 mobilized peripheral blood CD34+ cells were plated per well in 384-well plate at a final volume of 45 μL in HSC growth media (SFEM supplemented with Pen/Strep, 50 ng/mL FLT3L, TPO, SCF and IL-6). Serial dilutions were made in HSC growth media with a top final concentration of 10 μM. 5 μL 10× stock was added to each well. The plate was gently tapped on all sides and incubated for 7 days at 37° C./5% CO2. On day 7, the media was aspirated on a Biotek plate washer and 30 μL staining solution was added to the cells with antibodies against CD34-PE, CD90-APC, CD45RA-PE-CF594 in PBS. Cells were washed once in PBS and resuspended in 80 μL for final volume. 40 μL was acquired by flow cytometry (BD Celesta).

[2] = molecular target: T1, aryl hydrocarbon receptor (AHR) (Homo sapiens, UniProt P35869); assay: DRE-Luciferase reporter high-throughput screen (AHR antagonist, VAF347-activated)
T1 sequence (P35869 11-848): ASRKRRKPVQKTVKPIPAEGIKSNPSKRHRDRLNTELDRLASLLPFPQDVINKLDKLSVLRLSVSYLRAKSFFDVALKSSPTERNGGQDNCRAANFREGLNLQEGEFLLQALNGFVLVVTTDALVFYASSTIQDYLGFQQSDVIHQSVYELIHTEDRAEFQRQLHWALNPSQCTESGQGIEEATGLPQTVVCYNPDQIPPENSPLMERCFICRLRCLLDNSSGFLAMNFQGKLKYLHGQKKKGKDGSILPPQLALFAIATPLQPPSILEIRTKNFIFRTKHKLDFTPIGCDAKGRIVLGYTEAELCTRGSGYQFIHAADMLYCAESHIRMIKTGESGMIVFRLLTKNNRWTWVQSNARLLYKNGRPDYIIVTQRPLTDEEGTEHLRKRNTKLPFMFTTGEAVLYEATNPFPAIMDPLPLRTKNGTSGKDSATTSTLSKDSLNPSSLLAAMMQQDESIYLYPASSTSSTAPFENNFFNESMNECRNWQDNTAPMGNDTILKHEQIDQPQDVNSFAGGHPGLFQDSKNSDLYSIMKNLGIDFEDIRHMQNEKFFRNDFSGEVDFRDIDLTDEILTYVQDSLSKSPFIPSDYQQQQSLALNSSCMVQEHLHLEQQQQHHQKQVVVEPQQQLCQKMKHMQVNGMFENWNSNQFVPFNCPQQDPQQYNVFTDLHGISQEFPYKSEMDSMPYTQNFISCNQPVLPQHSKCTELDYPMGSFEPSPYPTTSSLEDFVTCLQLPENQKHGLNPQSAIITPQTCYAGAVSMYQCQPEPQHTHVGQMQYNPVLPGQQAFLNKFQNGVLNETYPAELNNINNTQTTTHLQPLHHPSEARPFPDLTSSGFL
Description: HepG2 hepatocellular carcinoma cells were transfected with a dioxin-response element (DRE) Firefly luciferase reporter construct. Luciferase transcription was activated with the aryl hydrocarbon receptor (AHR) agonist, VAF347. Addition of an AHR antagonist results in inhibition of the luciferase transcription and a loss of signal in the assay.
HepG2, a hepatocellular carcinoma cell line, was transfected with the dioxin-response element Firefly luciferase reporter construct using the TransIT-transfection system. Prior to transfection, HepG2 cells (Sigma) were cultured at 90% confluency in Eagle's Modified Essential Medium (Sigma)+2 mM Glutamine (Sigma), +1^% Non Essential Amino Acids (Sigma)+10% Fetal Bovine Serum (Hyclone) and harvested and counted (Biorad TC20 cell counter). OptilMEM serum-free media and TransIT (Mirus) were mixed for transfection in 150 mm dishes by adding 240 μL Transit to 3.0 mL OptiMEM, vortexing briefly to mix, and incubating at room temperature for 20 minutes. The DNA mixture was prepared by adding 80 μg plasmid (pGudLuc6.1 plasmid, Garrison et al., (1996) Fundam. Appl. Toxicol., 30, 194-203), inverting to mix, and incubating at room temperature for 30 minutes. 30×10^6 HepG2 cells were seeded in 30 mL media and 3.3 mL of the DNA, OptiMEM, and TransIT mixture was added dropwise to the plate. The plate was mixed by rocking and incubated at 37° C./5% CO2 overnight. The next day, cells were harvested by aspirating media, washing once with sterile phosphate buffered saline (PBS, Gibco), trypsinzing with 0.05% Trypsin (Corning) and harvesting cells with culture medium, and freezing with Cell Freezing Media (Gibco) at 5 50×10^6 cells/vial in 1 mL/vial.
Transiently-transfected frozen HepG2 cells with DRE-Luciferase, were thawed in a 37° C. water bath and resuspended in complete media. 4 μL cells at 15,000 cells per well was transferred into the wells of a 1536-well Alphaplate assay plate (PerkinElmer) using TEMPEST liquid dispenser. The plate was centrifuged at 1000 rpm for 1 minute. 30 nL of the controls (1 μM (S)-2-(6-((2-(1H-indol-3-yl)ethyl)amino)-2-(5-fluoropyridin-3-yl)-9H-purin-9-yl)propan-1-ol or 100% DMSO) were transferred to the assay plate using the Pin Tool on BRAVO. 1 μL of VAF347 (15 nM final concentration) in complete media was added to the wells using TEMPEST. The plate was centrifuged at 1000 rpm for 1 minute and incubated at 37° C./5% CO2 overnight. After incubation, the plate was removed from the incubator and brought to room temperature. 2 μL of room temperature Steady-Glo luciferase detection reagent (Promega) was added to the wells with TEMPEST. The plate was centrifuged at 2000 rpm for 1 minute, sealed with clear plastic seal and kept at room temperature for 15 minutes prior to measuring luminescence on ENVISION.
Approximately 166,000 compounds were screened in 132 1536-well plates in the luciferase reporter gene assay at a final concentration of 12 μM. […] Each compound was tested at 0.1 μM, 1.0 μM, and 10 μM in the DRE luciferase assay and Cell Titer Glo cytotoxicity assay (Promega). […] 512 compounds were selected for 10-point dose-response in the AHR luciferase reporter assay and the Cell Titer Glo cytotoxicity assay.

Row | EC50 [1] [µM] | IC50 [2] [µM] | Structure (SMILES)
1 | 1 to 5 | 0.5 to 1 | Clc1ccc(COc2ccc(-c3ccnc4ccnn34)cc2)cc1 [compound 104]
2 | 1 to 5 | 0.5 to 1 | CC(C)OCCCn1c(=O)c(-c2cccs2)nc2cc(S(=O)(=O)N3CCOCC3)ccc21 [compound 128]
3 | 1 to 5 | 0.5 to 1 | O=C1CN(C(=O)c2sc3ccccc3c2Cl)c2ccccc2N1 [compound 132]
4 | < 0.5 | < 0.2 | CCc1cccc2c(-c3cn4cc(S(N)(=O)=O)ccc4n3)c[nH]c12 [compound 100]
5 | 0.5 to 1 | 0.2 to 0.5 | O=C(Nc1ccc(N2CCCC2)nc1)c1cc2c(F)cccc2s1 [compound 46]
6 | 1 to 5 | 0.5 to 1 | CC(C)(C)c1ccc(O)c(NC(=O)c2cnc3ccccn3c2=O)c1 [compound 27]
7 | < 0.5 | 0.5 to 1 | COc1ccc(Nc2nc(-c3ccccn3)cs2)cc1 [compound 59]
8 | 0.5 to 1 | 0.2 to 0.5 | Cc1noc(C)c1C(=O)Nc1ccc(-c2nc3ccccc3o2)cc1 [compound 25]
9 | 0.5 to 1 | 0.2 to 0.5 | O=C(Nc1ccccc1Cl)c1cnc(-c2noc3ccccc23)s1 [compound 23]
10 | 1 to 5 | 0.5 to 1 | Cc1ccc(Nc2cc(-c3ccccc3)nc3ncnn23)cc1 [compound 107]
11 | 1 to 5 | 0.5 to 1 | Cn1nc(C(C)(C)C)cc1-c1nn2c(-c3cccs3)nnc2s1 [compound 73]
12 | < 0.5 | 0.5 to 1 | C/C(=N\Nc1ncc(Br)cn1)c1cccc([N+](=O)[O-])c1 [compound 112]
13 | 1 to 5 | 0.5 to 1 | Cc1ccc(C(=O)Nc2ccc(-c3nccs3)cc2)cc1 [compound 8]
14 | 1 to 5 | 0.5 to 1 | COc1ccc(-c2nnc(Nc3ccccc3O)c3ccccc23)cc1 [compound 130]
15 | 1 to 5 | 0.2 to 0.5 | O=[N+]([O-])c1ccc(/C=N/Nc2nccc(-c3cccnc3)n2)cc1 [compound 113]
16 | 1 to 5 | 0.5 to 1 | COc1ccccc1C(=O)Nc1cccc(-c2cn3ccsc3n2)c1 [compound 6]
17 | < 0.5 | < 0.2 | Cc1ccc2nc(-c3ccc(Cl)cc3)cc(C(N)=O)c2c1 [compound 116]
18 | ≥ 5 | 0.5 to 1 | Cc1cc(C(=O)NNC(=O)c2cnn(-c3ccccc3C)c2C(F)(F)F)c(C)o1 [compound 139]
19 | 1 to 5 | 0.5 to 1 | O=C(N/N=C\c1ccccc1C(F)(F)F)c1n[nH]c2c1CCc1ccccc1-2 [compound 99]
20 | 1 to 5 | 0.2 to 0.5 | Cc1nc(-c2ccccc2)sc1C(=O)N/N=C/c1cc2ccccc2o1 [compound 115]

Row | EC50 [1] [µM] | IC50 [2] [µM] | Structure (SMILES)
21 | 0.5 to 1 | 0.5 to 1 | O=C(Nc1ccc2ccccc2n1)c1ccccc1Cl [compound 12]
22 | 1 to 5 | 0.2 to 0.5 | Cc1cc(Oc2ncccc2C#N)ccc1NC(=O)c1oc(Br)cc1C [compound 26]
23 | < 0.5 | 0.2 to 0.5 | N#Cc1cn(-c2ccc(Cl)cc2)nc1C(=O)c1cccs1 [compound 91]
24 | ≥ 5 | 0.5 to 1 | O=c1[nH]c2ccc(-c3csc(-c4ccccn4)n3)cc2[nH]1 [compound 58]
25 | ≥ 5 | 0.5 to 1 | Nc1cc(-c2ccc3c(c2)CCCC3)nn1-c1ccccc1 [compound 92]
26 | 1 to 5 | 0.5 to 1 | COc1cc([N+](=O)[O-])ccc1NC(=O)Nc1nc2c(s1)CCCC2 [compound 121]
27 | 1 to 5 | 0.5 to 1 | Cc1ccc(-c2csc(-c3ccncc3)n2)c(C)c1 [compound 52]
28 | 0.5 to 1 | 0.5 to 1 | Cc1nn2c(C)c(C(=O)OC(C)C)nnc2c1-c1ccccc1 [compound 106]
29 | 0.5 to 1 | 0.5 to 1 | Cc1ccc2nc(-c3ccc(-c4ccccn4)s3)cn2c1 [compound 101]
30 | 1 to 5 | 0.5 to 1 | CC(=O)c1c(C)nc2nc(SCc3cccc(Cl)c3)nn2c1C [compound 125]
31 | 0.5 to 1 | < 0.2 | Cc1noc(C)c1C(=O)Nc1ccc2oc(-c3cc(F)ccc3Br)nc2c1 [compound 45]
32 | 1 to 5 | 0.5 to 1 | CCc1cc(C(=O)Nc2ccc(SC)cc2)sc1C [compound 38]
33 | 1 to 5 | 0.5 to 1 | Cn1c(SCc2ccc(-c3ccccc3)cc2)nnc1C(F)(F)F [compound 95]
34 | 1 to 5 | 0.5 to 1 | COc1ccc(NC(=O)CNc2ccc(C(F)(F)F)cc2)cc1Cl [compound 127]
35 | 1 to 5 | 0.5 to 1 | Cc1ccc(-c2nc(-c3cc(C)on3)no2)cc1 [compound 122]
36 | < 0.5 | < 0.2 | Cc1cnn(-c2nc(-c3ccc(F)cc3)cc(C(F)(F)F)n2)c1 [compound 83]
37 | ≥ 5 | < 0.2 | COC(=O)c1sc(NC(=O)c2cc(C)n(C)n2)cc1C [compound 41]
38 | 1 to 5 | 0.5 to 1 | CCN(CC)C(=O)c1nc2c(s1)CCN(c1ncccn1)CC2 [compound 133]
39 | ≥ 5 | 0.5 to 1 | N#Cc1cccc(C#N)c1N1CCN(C(=O)Nc2ccccc2)CC1 [compound 79]
